Columns and labels:
Factor VII = details: LNP siRNA systems containing these lipids; cited from earlier work
HBG1/2 promoter = test: Off-target transcriptional activation using RNAseq; format: cell-based
Description: FIG. 7A-7C: The plots of FIG. 7 illustrate embodiments in which dRNAs can specifically upregulate gene expression, and have a specificity profile similar to 20 bp sgRNA activators. Sequences targeted to the HBG1/2 promoter were tested for off-target transcriptional activation using RNAseq. 20 nt sgRNAs with MS2 binding loops were co-transfected with dCas9 and the MPH activation complex. […] (In all cases, N=3 replicates/group).

dystrophin = details: across 48 weeks, average; cited from earlier work
[1] = 20 nt sgRNA with MS2 loops + dCas9 + MPH

1,2-dilinoleyloxy-keto-N,N-dimethyl-3-aminopropane [DLinKDMA]
gene silencing potency series (Factor VII): DLinKC2-DMA>DLinKDMA>DLinDMA>>DLinDAP

CCCCC/C=C\C/C=C\CCCCCCCC(=O)OCC(CN(C)C)OC(=O)CCCCCCC/C=C\C/C=C\CCCCC (stereo not drawn) [DLinDAP, 1,2-dilineoyl-3-dimethylammonium-propane]
gene silencing potency series (Factor VII): DLinKC2-DMA>DLinKDMA>DLinDMA>>DLinDAP

CCCCC/C=C\C/C=C\CCCCCCCCOCC(CN(C)C)OCCCCCCCC/C=C\C/C=C\CCCCC (stereo not drawn) [DLinDMA, 1,2-dilinoleyloxy-3-N,N-dirnethylamiopropane]
gene silencing potency series (Factor VII): DLinKC2-DMA>DLinKDMA>DLinDMA>>DLinDAP

CCCCC/C=C\C/C=C\CCCCCCCCC1(CCCCCCCC/C=C\C/C=C\CCCCC)OCC(CCN(C)C)O1 (stereo not drawn) [DLinKC2-DMA, 1,2-dilinoleyl-4-(2-dimethylaminoethyl)-[1,3]-dioxolane]
gene silencing potency series (Factor VII): DLinKC2-DMA>DLinKDMA>DLinDMA>>DLinDAP

SEQ ID NO 90: 20 nt sgRNA with MS2 binding loops targeted to the HBG1/2 promoter, second guide (guide CCAGTGAGGCCAGGGGCCGG; listed as DNA, chemistry not given here)
significantly upregulated genes apart from HBG1/2 (HBG1/2 promoter; [1]): 55

SEQ ID NO 97: dRNA targeted to the HBG1/2 promoter, second guide (guide GAGGCCAGGGGCCGG; listed as DNA, chemistry not given here)
significantly upregulated genes apart from HBG1/2 (HBG1/2 promoter; dRNA + active Cas9 + MPH): 31

SEQ ID NO 120: 20 nt sgRNA with MS2 binding loops targeted to the HBG1/2 promoter, first guide (guide GGCTAGGGATGAAGAATAAA; listed as DNA, chemistry not given here)
significantly upregulated genes apart from HBG1/2 (HBG1/2 promoter; [1]): Zero

SEQ ID NO 125: dRNA targeted to the HBG1/2 promoter, first guide (guide GGGATGAAGAATAAA; listed as DNA, chemistry not given here)
significantly upregulated genes apart from HBG1/2 (HBG1/2 promoter; dRNA + active Cas9 + MPH): Zero

eteplirsen
dystrophin positive fibers compared to baseline (dystrophin): 47%

Source: US20170321214A1, “DEAD GUIDES FOR CRISPR TRANSCRIPTION FACTORS” (The Broad Institute Inc., priority 2014, published 2017)
